Where two headings read alike, the source gives them in different places.

The target of one assay is T1, X. laevis Mel1c receptor (Xenopus laevis, UniProt P49219).
T1 construct: expressed in transfected cells; host or cells: COS7 (transient nucleofection, pCIneo vector)
T1 sequence (P49219 1-354 isoform P49219-2): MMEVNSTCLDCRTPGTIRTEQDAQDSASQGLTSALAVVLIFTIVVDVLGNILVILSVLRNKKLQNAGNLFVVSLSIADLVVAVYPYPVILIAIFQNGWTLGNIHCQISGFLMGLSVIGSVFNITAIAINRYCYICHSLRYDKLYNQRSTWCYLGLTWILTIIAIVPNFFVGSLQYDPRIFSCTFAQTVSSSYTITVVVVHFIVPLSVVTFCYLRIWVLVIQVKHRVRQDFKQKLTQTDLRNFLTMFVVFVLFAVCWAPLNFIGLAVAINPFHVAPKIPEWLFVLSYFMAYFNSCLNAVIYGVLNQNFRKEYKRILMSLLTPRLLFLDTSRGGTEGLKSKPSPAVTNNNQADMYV
Nature of the assay: 2-[125I]-iodomelatonin competition binding, transiently transfected COS7 cells, Xenopus Mel1c. Particulars: COS7 cells transiently transfected with Mel1c gene; radioligand 2-[125I]-iodomelatonin; two transfections, triplicate; read-out: pKi Xenopus laevis (converted). How it is done:
(§1) COS7 cells obtained from the American Type Culture Collection were maintained in DMEM GlutaMAX (Thermo Fisher Scientific, Waltham, USA) supplemented with 10% (v/v) fetal calf serum. Nucleofection of COS7 cells was performed according to the manufacturer's instructions using the Nucleofector machine (Amaxa, Cologne, Germany). Adherent COS7 cells were washed in phosphate-buffered saline (PBS), trypsinized, and gently resuspended in V nucleofection solution to a final concentration of 7 × 10^6 cells/100 μl. Next, 5 μg of pCIneo/Mel1c vector was mixed with 100 μl of the COS7 cell suspension, transferred to a […] electroporation cuvette, and nucleofected using program A024 and an Amaxa Nucleofector apparatus. Just after the nucleofection, 500 μl of media supplemented with 20% (v/v) fetal calf serum was added to the cell suspension and cultured in a humidified 37°C, 5% CO2 incubator for 20 minutes. Fourteen million cells were transferred to a T225 flask containing 50 ml of media supplemented with 20% (v/v) fetal calf serum and cultured in a humidified 37°C, 5% CO2 incubator. Two days after transfection, the cells were harvested in PBS, pelleted, and stored at -80°C until use.
(§2) This approach has been described very often by our laboratory and others. […] The results were expressed as Ki, taking into account the concentration of radioligand used in each experiment. […] The reaction was stopped by rapid filtration through GF/B Unifilters, followed by three successive washes with ice-cold buffer. Data were analyzed by using the program PRISM (GraphPad Software Inc., San Diego, CA). For saturation assays, the density of binding sites (Bmax) and the dissociation constant of the radioligand (KD) were calculated according to the Scatchard method. […] A similar protocol was used when the binding was performed on whole cells, as described by Legros et al.. As per Plos One policy, all the raw data–listings from radioactivity counter are attached as raw files (Supplementary Tables A to M in S1 Data).
(§3) To obtain stable expression of the receptor for future studies, a preliminary step involving transient expression of the receptor was performed. The Mel1c receptors from the three species were expressed in transiently transfected COS7 cells. A limited number of compounds were tested in order to gain a preliminary perception of the characteristics of Mel1c from these species.

The target of assay [1] is T2, Platypus Mel1C (Ornithorhynchus anatinus, UniProt A0A2P1K6N2). Nature of the assay: 2-[125I]-iodomelatonin competition binding, membranes from stably transfected CHO cells, platypus Mel1c. How it is done:
(§4) CHO-Flp-In cells (Thermo Fisher Scientific, Waltham, USA) were cultivated in the presence of zeocin (0.1 mg/ml). The cells were cotransfected with either platypus (cloned sequence that will be submitted to GenBank) Mel1c/pcDNA5-FRT (platypus Mel1c) or X. laevis (NM 001087919.1) Mel1c/pcDNA5-FRT (clawed frog Mel1c) and Flp recombinase expression pOG44 plasmid using PEIpro (Invitrogen, Carlsbad, CA). CHO cells stably expressing platypus Mel1c or clawed frog Mel1c were selected using hygromycin (0.6 mg/ml). CHO-Flp-In-platypus Mel1c cells were grown in HAM F12 with 2 mM glutamine and supplemented with 10% fetal calf serum. Cells were selected using antibiotic pressure (hygromycin) for 72 h. […] After confirmation of the presence of the transgene, the cells were amplified up to 2 x 10^9 cells. This material was used to prepare the cell membranes used in further pharmacological experiments.
(§5) This standard procedure was described in a previous experiment with CHO cells expressing the sheep MT2 receptor [23]. […] The resulting pellet was suspended in 5 mM Tris/HCl (pH 7.4) containing 2 mM EDTA and homogenized using a Kinematica polytron. The homogenate was then centrifuged (20,000g, 30 min, 4°C) and the resulting pellet suspended in 75 mM Tris/HCl (pH 7.4) containing 2 mM EDTA and 12.5 mM MgCl2. The protein content was determined according to the method of Lowry et al. using the Bio-Rad kit (Bio-Rad SA, Ivry-sur-Seine, France). Aliquots of membrane preparations were stored in binding buffer (50 mM Tris/HCl, pH 7.4 containing 5 mM MgCl2 and 1 mM EDTA) at –80°C until use.
as §2

The next assay has as its target T3, Xenopus Mel1C (Xenopus laevis, UniProt P49219).
T3 construct: expressed in transfected cells
T3 sequence (P49219 1-420): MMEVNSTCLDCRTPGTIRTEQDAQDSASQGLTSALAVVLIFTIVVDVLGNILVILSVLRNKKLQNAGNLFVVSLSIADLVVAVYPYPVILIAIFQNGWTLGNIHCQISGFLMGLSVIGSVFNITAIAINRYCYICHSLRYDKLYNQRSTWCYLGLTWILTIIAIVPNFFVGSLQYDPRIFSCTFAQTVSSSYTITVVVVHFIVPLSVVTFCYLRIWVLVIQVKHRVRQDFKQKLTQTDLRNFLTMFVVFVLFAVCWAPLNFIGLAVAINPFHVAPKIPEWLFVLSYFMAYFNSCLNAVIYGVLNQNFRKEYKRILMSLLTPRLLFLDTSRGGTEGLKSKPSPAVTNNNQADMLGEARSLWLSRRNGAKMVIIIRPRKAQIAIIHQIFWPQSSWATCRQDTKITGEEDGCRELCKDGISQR
Briefly: 2-[125I]-iodomelatonin competition binding, membranes from stably transfected CHO cells, Xenopus Mel1c. Particulars: radioligand 2-[125I]-iodomelatonin. How it is done: as §4, §5, §2

In another assay the target is T4, G. gallus Mel1c receptor (Gallus gallus, UniProt P49288).
T4 construct: expressed in transfected cells; host or cells: COS7 (transient nucleofection, pCIneo vector)
T4 sequence (P49288 1-346): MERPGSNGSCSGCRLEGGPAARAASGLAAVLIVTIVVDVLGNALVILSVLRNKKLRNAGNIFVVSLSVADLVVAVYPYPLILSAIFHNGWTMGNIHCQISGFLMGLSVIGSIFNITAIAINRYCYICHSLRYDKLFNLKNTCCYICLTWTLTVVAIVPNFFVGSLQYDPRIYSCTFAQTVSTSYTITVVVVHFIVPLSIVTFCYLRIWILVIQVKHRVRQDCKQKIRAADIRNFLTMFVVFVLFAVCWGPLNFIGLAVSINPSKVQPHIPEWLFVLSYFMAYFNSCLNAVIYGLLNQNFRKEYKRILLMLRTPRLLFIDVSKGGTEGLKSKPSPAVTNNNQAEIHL
Briefly: 2-[125I]-iodomelatonin competition binding, transiently transfected COS7 cells, chicken Mel1c. How it is done:
as §1, §2, §3

Assay [2] concerns the target T2, Platypus Mel1C. Briefly: 2-[125I]-iodomelatonin competition binding, transiently transfected COS7 cells, platypus Mel1c. The conditions noted are these: COS7 cells transiently transfected with Mel1c gene; radioligand 2-[125I]-iodomelatonin; two transfections, triplicate. How it is done: as §1, §2, §3
Another assay concerns the target hMT1 (Homo sapiens, UniProt P48039). Nature of the assay: 2-[125I]-iodomelatonin competition binding, human MT1. Also on record: hMT1: unit not given here. Particulars: membranes from stably transfected CHO cells, radioligand 2-[125I]-iodomelatonin; for Ki: read-out: hMT1 (converted). On the procedure:
as §2

Another assay addresses T5, hMT2 (Homo sapiens, UniProt P49286).
T5 sequence (P49286 1-362): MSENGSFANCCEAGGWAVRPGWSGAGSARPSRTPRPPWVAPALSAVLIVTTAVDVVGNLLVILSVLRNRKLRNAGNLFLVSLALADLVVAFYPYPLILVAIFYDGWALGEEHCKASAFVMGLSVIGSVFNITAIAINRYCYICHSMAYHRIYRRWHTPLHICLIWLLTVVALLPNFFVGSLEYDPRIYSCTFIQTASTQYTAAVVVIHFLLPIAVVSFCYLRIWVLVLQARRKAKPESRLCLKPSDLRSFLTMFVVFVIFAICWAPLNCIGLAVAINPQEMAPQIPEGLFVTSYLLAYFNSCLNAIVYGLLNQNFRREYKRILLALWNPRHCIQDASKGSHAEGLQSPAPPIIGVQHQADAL
Nature of the assay: 2-[125I]-iodomelatonin competition binding, human MT2. The conditions noted are these: membranes from stably transfected CHO cells; radioligand 2-[125I]-iodomelatonin; read-out: hMT2 (converted). On the procedure: as §2

For the next assay, the system named is MT1. Particulars: introduction statement; cited from earlier work.
The subject of the next assay is quinone reductase 2; QR2. The arrangement: method as in PMID 10913150. Particulars: introduction statement, 'in the 10 μM range'; cited from earlier work.
The next assay concerns GPR50. The conditions noted are these: mammalian melatonin-related receptor; cited from earlier work.
In the next assay the test system is MT2. Particulars: introduction statement; cited from earlier work.
The mark [3] stands for this setting: membranes from stably transfected CHO cells, radioligand 2-[125I]-iodomelatonin, read-out: Platypus Mel1C (converted).

hMT1, sequence (P48039 whole entry): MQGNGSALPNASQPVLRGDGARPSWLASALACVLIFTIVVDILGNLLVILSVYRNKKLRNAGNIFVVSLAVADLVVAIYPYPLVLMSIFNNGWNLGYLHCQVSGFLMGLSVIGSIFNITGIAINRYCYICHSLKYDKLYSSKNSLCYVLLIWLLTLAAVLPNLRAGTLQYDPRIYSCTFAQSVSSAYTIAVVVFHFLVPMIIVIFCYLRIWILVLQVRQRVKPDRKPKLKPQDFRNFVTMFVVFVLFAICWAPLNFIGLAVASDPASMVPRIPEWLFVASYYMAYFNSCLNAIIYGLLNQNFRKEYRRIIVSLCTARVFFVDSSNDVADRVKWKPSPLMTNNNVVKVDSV
T2 sequence (A0A2P1K6N2 1-349): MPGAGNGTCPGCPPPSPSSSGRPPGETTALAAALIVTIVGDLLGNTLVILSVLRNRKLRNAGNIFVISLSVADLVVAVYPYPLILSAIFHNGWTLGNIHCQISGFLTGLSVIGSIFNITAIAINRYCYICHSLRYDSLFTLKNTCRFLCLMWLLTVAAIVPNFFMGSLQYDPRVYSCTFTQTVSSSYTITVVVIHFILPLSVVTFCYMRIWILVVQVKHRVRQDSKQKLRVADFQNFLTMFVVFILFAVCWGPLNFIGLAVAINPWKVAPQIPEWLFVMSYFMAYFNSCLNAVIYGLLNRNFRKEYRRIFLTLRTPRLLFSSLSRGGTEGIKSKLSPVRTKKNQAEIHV

Turning to `CC(=O)NCCc1c(Cc2ccccc2)[nH]c2ccccc12` [Luzindole, N-acetyl-2-benzyltryptamine], the Ki at X. laevis Mel1c receptor was 2000 nM; on Platypus Mel1C [1] (setting [3]), 2510 nM; at Xenopus Mel1C it was 2510 nM; on G. gallus Mel1c receptor it was 3980 nM; on hMT2 it was 25.1 nM. Besides, the “pKi Ornithorhyncus anatinus” value at Platypus Mel1C [2] came out at 5.9. For the same molecule, the hMT1 at hMT1 is given as 6.6.
Consider `COc1ccc2[nH]cc(CCNC(C)=O)c2c1` [Melatonin], for which the “affinity of MT1 for melatonin” value with MT1 is given as not above 1 nM. For the same molecule, the Ki is 1.58 nM on X. laevis Mel1c receptor; approximately 1 nM at Platypus Mel1C [1] (affinity of platypus Mel1c for melatonin, abstract statement, 'in the 1 nM range'); 2 nM at Platypus Mel1C [1] (setting [3]); 2 nM at Xenopus Mel1C. Further, the “pKi Ornithorhyncus anatinus” value on Platypus Mel1C [2] worked out at 8.6. Also, the “affinity of QR2 for melatonin” value with quinone reductase 2; QR2 is approximately 10 µM. Besides, the “melatonin binding to GPR50” value in the assay with GPR50 is reported as “does not bind melatonin”. In addition, in the assay with MT2, the “affinity of MT2 for melatonin” value is not above 1 nM.
`CCC(=O)N[C@@H]1Cc2ccccc2[C@H](c2ccccc2)C1` [4P-PDOT, N-[(2S,4S)-4-phenyl-1,2,3,4-tetrahydronaphthalen-2-yl]propanamide]: the Ki was 200 nM at X. laevis Mel1c receptor; 631 nM at Platypus Mel1C [1] (setting [3]); 794 nM at Xenopus Mel1C; 398 nM at G. gallus Mel1c receptor; 158 nM at hMT1; 1.26 nM on hMT2. For the same molecule, the “pKi Ornithorhyncus anatinus” value on Platypus Mel1C [2] amounted to 6.7.
`CCc1ccc2scc(CCNC(C)=O)c2c1` [S22153, N-[2-(5-ethylbenzothiophen-3-yl)ethyl]acetamide]: the Ki at X. laevis Mel1c receptor was 100 nM; on Platypus Mel1C [1] (setting [3]) it was 50.1 nM; on Xenopus Mel1C it was 126 nM; on G. gallus Mel1c receptor (COS7 cells transiently transfected with Mel1c gene, radioligand 2-[125I]-iodomelatonin, two transfections, triplicate, read-out: pKi Gallus gallus (converted)), 200 nM; at hMT1 it was 6.31 nM; at hMT2, 10 nM. At Platypus Mel1C [2], the “pKi Ornithorhyncus anatinus” value is recorded as 7.6.

Values taken from paper PMC5846726, “Characterization of the Mel1c melatoninergic receptor in platypus (Ornithorhynchus anatinus)” (PLoS ONE, 2018).
